Laboratory results taken from patent publication US8785728B2, “AAD-12 event 1606 and related transgenic soybean lines” (priority 2010, dated 2014).

Experiments:
[1] = tested on: soybean event pDAB4472-1606; format: in vivo, Glycine max; settings: 2,4-D dimethylamine salt 2240 g ae/ha applied at V3 and R2; adjusted mean
Source text: The agronomic characteristics of soybean event pDAB4472-1606 were compared to an isogenic non-transformed soybean line across diverse geographical locations during the 2009 growing season. Data were collected and analyzed for the following agronomic characteristics: • 1.) Stand count: The number of plants in a representative one meter section of each row was counted. Taking data at the VC-V2 growth stage; • 2.) Emergence: Calculated by dividing Stand count (above) by number of seeds planted in a one meter section; • 3.) Seedling Vigor at V1-V3: Vigor is an overall estimate of the health of the plant. […] Recorded in the number of days from planting date; • 8.) Stand count at R2: The number of plants in a representative one meter section of row were counted. Note taken at the R2 growth stage; • 9.) Overall visual crop injury, chlorosis and necrosis at 1 day after R2 chemical application; • 10.) Overall visual crop injury, chlorosis and necrosis at 7 days after R2 chemical application; • 11.) Overall visual crop injury, chlorosis and necrosis at 14 days after R2 chemical application. • 12.) Disease incidence (if any) at R6 growth stage: Recorded the percentage of plants affected by the disease. 0-100% scale; • 13.) Insect damage (if any) at R6 growth stage: Recorded the percentage of plant tissue in the plot damaged by insects. 0-100% scale; • 14.) Plant height at senescence: Recorded the average height of the plants in each plot. Measured plants from the soil surface to the tip after leaves had fallen. Recorded measurement in centimeters; • 15.) Days to maturity. Recorded when 95% of the pods in a plot had reached their dry down color and were at ˜15% moisture or less. Recorded in days from planting; • 16.) Lodging: Recorded lodging at harvest time. […] (All plants in a plot standing straight=1 and all plants in the plot flat=5); • 17.) Shattering: Recorded shattering at harvest time. Recorded as an estimate of number of pods shattered. […] Recorded seed weight and moisture. […]

[2] = tested on: soybean event pDAB4472-1606; assay: Field expression level study with 2X spray rate of 2,4-D; format: in vivo, Glycine max; settings: 2X spray rate (2,240 gm ae/ha of 2,4-D); at any point of the study
Experimental: Field expression level studies at various plant stages were performed on soybean event pDAB4472-1606 at pre V3, post V3, pre R2, and post R2. Expression values were similar for all the sprayed treatments as well as for the plots sprayed and unsprayed with 2,4-D herbicide. […] Average expression across all lineages in pre V3 plant stage was 200 ug/cm^2. After spraying 2,4-D the expression remained stable averaging […] across lineages. By the time the soybeans reached pre R2 the average expression had dropped slightly to an average of 250 ug/cm^2. After spraying 2,4-D the expression post R2 had remained at the previous average of 250 ug/cm^2.

O=C(O)COc1ccc(Cl)cc1Cl [2,4-D, 2,4-dichlorophenoxyacetic acid]
Overall crop injury 1 day after V3 spray [1]: 0.3%
Overall crop injury 7 days after V3 spray [1]: 2.1%
Overall crop injury 14 days after V3 spray [1]: 3.3%
Injury on the plants [2]: no significant injury was observed
